Measurements: patent US20130302442A1, “METHODS OF USING (4S,4AS,5AR,12AS)-4-DIMETHYLAMINO-3,10,12,12A-TETRAHYDROXY-7-[(METHOXY(METHYL)AMINO)-METHYL]-1,11-DIOXO-1,4,4A,5,5A,6,11,12A-OCTAHYDRO-NAPHTHACENE-2-CARBOXYLIC ACID AMIDE” (priority 2012, published 2013)
Read-outs that look alike come from different tables or passages of the source.

How the values were obtained:
Bifidobacterium bifidum = assay: In vitro MIC testing against anaerobic bacteria; type: cell-based; details: ATCC15696; Bifidobacterium bifidum 3965, ATCC 15696
Bifidobacterium brevi = assay: In vitro MIC testing against anaerobic bacteria; type: cell-based; details: ATCC15698; Bifidobacterium brevi 3967, ATCC 15698
Bifidobacterium infantis = assay: In vitro MIC testing against anaerobic bacteria; type: cell-based; details: ATCC15702; Bifidobacterium infantis 3966, ATCC 15702
Bifidobacterium longum = assay: In vitro MIC testing against anaerobic bacteria; type: cell-based; details: ATCC15707; Bifidobacterium longum 3968, ATCC 15707
Clostridium perfringens = assay: microbe, parasite or virus in culture; type: cell-based
Clostridium difficile = assay: In vitro MIC testing against anaerobic bacteria; type: cell-based
[1] = tested on: Lactobacillus acidophilus; assay: In vitro MIC testing against anaerobic bacteria; type: cell-based; details: Lactobacillus acidophilus 0681
Lactobacillus casei = assay: In vitro MIC testing against anaerobic bacteria; type: cell-based; details: Lacticaseibacillus casei, ATCC393; Lactobacillus casei 1722, ATCC 393
Lactobacillus plantarum = assay: In vitro MIC testing against anaerobic bacteria; type: cell-based; details: Lactiplantibacillus plantarum, ATCC39268; Lactobacillus plantarum 2791, ATCC 39268
[2] = tested on: Peptostreptococcus anaerobius; assay: In vitro MIC testing against anaerobic bacteria; type: cell-based
[3] = tested on: Peptostreptococcus micros; assay: In vitro MIC testing against anaerobic bacteria; type: cell-based; details: Parvimonas micra, read-out: MIC
Propionibacterium acnes = assay: In vitro MIC testing against anaerobic bacteria; type: cell-based; details: Cutibacterium acnes, read-out: MIC
Bacteroides fragilis = assay: In vitro MIC testing against anaerobic bacteria; type: cell-based
Bacteroides ovatus = assay: In vitro MIC testing against anaerobic bacteria; type: cell-based
[4] = tested on: Bacteroides thetaiotaomicron; assay: In vitro MIC testing against anaerobic bacteria; type: cell-based
Bacteroides vulgatus = assay: In vitro MIC testing against anaerobic bacteria; type: cell-based
Eikenella corrodens = assay: In vitro MIC testing against anaerobic bacteria; type: cell-based; details: ATCC43278
Fusobacterium nucleatum = assay: In vitro MIC testing against anaerobic bacteria; type: cell-based; details: ATCC25586; Fusobacterium nucleatum 3962, ATCC 25586; read-out: MIC
[5] = tested on: Porphyromonas asaccharolytica; assay: In vitro MIC testing against anaerobic bacteria; type: cell-based
[6] = tested on: Prevotella melaninogenica; assay: In vitro MIC testing against anaerobic bacteria; type: cell-based
Prevotella spp. = assay: In vitro MIC testing against anaerobic bacteria; type: cell-based
Veillonella parvula = assay: In vitro MIC testing against anaerobic bacteria; type: cell-based; details: ATCC17745; Veillonella parvula 1272, ATCC 17745
P. granulosum = assay: In vitro MIC testing, antibacterial spectrum of activity; type: cell-based; details: P. granulosum [clinical isolates] (3 isolates)
P. avidum = assay: as above; type: cell-based; details: P. avidum [clinical isolates] (4 isolates)
S. epidermidis = assay: as above; type: cell-based, Staphylococcus epidermidis; details: for MIC50 / MIC90: Staphylococcus epidermidis; for MIC50: read-out: MIC50; for MIC90: read-out: MIC90
S. pneumoniae = assay: as above; type: cell-based, Streptococcus pneumoniae; details: for MIC50 / MIC90: S. pneumoniae [PSSP] (32 isolates); for MIC50: read-out: MIC50; for MIC90: read-out: MIC90
S. agalactiae = assay: as above; type: cell-based; details: for MIC / MIC50 / MIC90: Streptococcus agalactiae; for MIC50: read-out: MIC50; for MIC90: read-out: MIC90
S. haemolyticus = assay: as above; type: cell-based; details: S. haemolyticus (33 isolates); for MIC50 / MIC90: Staphylococcus haemolyticus; for MIC50: read-out: MIC50; for MIC90: read-out: MIC90
E. faecalis = assay: as above; type: cell-based; details: for MIC / MIC50 / MIC90: Enterococcus faecalis; for MIC50: read-out: MIC50; for MIC90: read-out: MIC90
E. faecium = assay: as above; type: cell-based; details: for MIC / MIC50 / MIC90: Enterococcus faecium; for MIC50: read-out: MIC50; for MIC90: read-out: MIC90
P. mirabilis = assay: as above; type: cell-based; details: Proteus mirabilis; P. mirabilis (30 isolates)
P. aeruginosa = assay: as above; type: cell-based; details: Pseudomonas aeruginosa; P. aeruginosa (11 isolates)
[7] = Peptostreptococcus anaerobius 3526
[8] = Peptostreptococcus anaerobius 3531
[9] = ATCC11829, Propionibacterium acnes 1286, ATCC 11829
[10] = Bacteroides fragilis 3374, read-out: MIC
[11] = Bacteroides ovatus 3503, read-out: MIC
[12] = Bacteroides ovatus 3508, read-out: MIC
[13] = Bacteroides thetaiotaomicron 3399
[14] = Bacteroides thetaiotaomicron 3496
[15] = Phocaeicola vulgatus, Bacteroides vulgatus 3389, read-out: MIC
[16] = Porphyromonas asaccharolytica 3552, read-out: MIC
[17] = Porphyromonas asaccharolytica 3557, read-out: MIC
[18] = Prevotella melaninogenica 3443, read-out: MIC
[19] = S. epidermidis [MRSE] (32 isolates)
[20] = S. epidermidis [MSSE] (31 isolates)
[21] = S. pneumoniae [tetS] (5 isolates)
[22] = S. agalactiae [tetS] (3 isolates)
[23] = E. faecalis [VSE] (31 isolates)
[24] = E. faecalis [tetS] (4 isolates)
[25] = E. faecium strain PBS # 965, tetM
[26] = E. faecium strain PBS # 1323, tetK
[27] = E. faecium strain PBS # 1324, tetO

C[C@H]1c2cccc(O)c2C(=O)C2=C(O)[C@]3(O)C(=O)C(C(N)=O)=C(O)[C@@H](N(C)C)[C@@H]3[C@@H](O)[C@@H]21 [Doxycycline, doxycycline]
0.25-0.25 μg/mL: MIC Range (S. agalactiae; [22])
0.5 to 4 µg/mL: MIC Range (P. avidum)
2 µg/mL: MIC [1] | MIC (Lactobacillus casei) | MIC (Lactobacillus plantarum) | MIC [2, 7] | MIC [5, 17] | MIC (E. faecalis; E. faecalis strain PBS # 949, tetS)
0.12 to 8 µg/mL: MIC Range (S. epidermidis; [19])
> 32 µg/mL: MIC50 (P. mirabilis) | MIC90 (P. mirabilis) | MIC50 (P. aeruginosa) | MIC90 (P. aeruginosa)
0.06 to 16 µg/mL: MIC Range (S. agalactiae; S. agalactiae (31 isolates)) | MIC Range (S. haemolyticus) | MIC Range (E. faecium; E. faecium [VRE] (30 isolates))
8 µg/mL: MIC (Bacteroides ovatus; [11]) | MIC (Bacteroides vulgatus; Bacteroides vulgatus 3494) | MIC (Bacteroides vulgatus; [15]) | MIC (S. agalactiae; S. agalactiae strain PBS # 316, tetO) | MIC (S. agalactiae; S. agalactiae strain PBS # 897, tetM) | MIC50 (S. agalactiae; S. agalactiae (31 isolates)) | MIC (E. faecalis; E. faecalis strain PBS # 276, tetM) | MIC50 (E. faecalis; [23]) | MIC90 (E. faecalis; [23]) | MIC90 (E. faecium; E. faecium [VRE] (30 isolates))
8 to 16 µg/mL: MIC Range (S. agalactiae; S. agalactiae [tetR] (7 isolates))
0.5 µg/mL: MIC (Bifidobacterium bifidum) | MIC (Bifidobacterium brevi) | MIC (Bifidobacterium infantis) | MIC ([3]; Peptostreptococcus micros 3545) | MIC (Propionibacterium acnes; [9]) | MIC (Fusobacterium nucleatum) | MIC50 (S. epidermidis; [19]) | MIC50 (S. haemolyticus) | MIC50 (E. faecium; E. faecium [VSE] (32 isolates))
0.06 µg/mL: MIC (Clostridium difficile; Clostridioides difficile) | MIC (Clostridium difficile; Clostridium difficile 3584) | MIC50 (S. pneumoniae; Streptococcus pneumoniae)
2 to 16 µg/mL: MIC Range (E. faecalis; E. faecalis [tetR] (6 isolates))
4 to 16 µg/mL: MIC Range (E. faecium; E. faecium [tetR] (6 isolates))
≦0.06-0.125 μg/mL: MIC Range (S. pneumoniae; [21]) | MIC Range (E. faecalis; [24])
0.5 to 1 µg/mL: MIC Range (P. granulosum)
0.25 µg/mL: MIC [4, 13]
16 µg/mL: MIC (Clostridium perfringens) | MIC (Bacteroides fragilis; Bacteroides fragilis 3479) | MIC [4, 14] | MIC [6] | MIC90 (S. agalactiae; S. agalactiae (31 isolates)) | MIC90 (S. haemolyticus) | MIC (E. faecalis; E. faecalis strain PBS # 274, tetL) | MIC90 (E. faecium; E. faecium [VSE] (32 isolates))
0.12 to 16 µg/mL: MIC Range (E. faecalis; [23])
0.12 µg/mL: MIC ([3]; Peptostreptococcus micros 3432) | MIC (Propionibacterium acnes; Propionibacterium acnes 1713) | MIC (Bacteroides fragilis; [10]) | MIC (Bacteroides ovatus; [12]) | MIC (Eikenella corrodens; Eikenella corrodens 1206, ATCC 43278, read-out: MIC) | MIC50 (S. epidermidis; [20]) | MIC90 (S. pneumoniae; Streptococcus pneumoniae)
4 µg/mL: MIC [2, 8] | MIC [5, 16] | MIC (S. pneumoniae; Streptococcus pneumoniae, S. pneumoniae strain PBS # 511, tetM) | MIC (E. faecium; [25]) | MIC (E. faecium; [26]) | MIC (E. faecium; [27])
1 µg/mL: MIC (Bifidobacterium longum) | MIC [6, 18] | MIC (Prevotella spp.; Prevotella spp. 3564) | MIC (Prevotella spp.; Prevotella spp. 3568) | MIC (Veillonella parvula) | MIC90 (S. epidermidis; [19]) | MIC90 (S. epidermidis; [20]) | MIC50 (E. faecium; E. faecium [VRE] (30 isolates))
0.06 to 1 µg/mL: MIC Range (S. epidermidis; [20])
0.06 to 32 µg/mL: MIC Range (E. faecium; E. faecium [VSE] (32 isolates))
4-4 μg/mL: MIC Range (S. pneumoniae; S. pneumoniae [tetR] (5 isolates))

CN(C)c1ccc(O)c2c1C[C@H]1C[C@H]3[C@H](N(C)C)C(O)=C(C(N)=O)C(=O)[C@@]3(O)C(O)=C1C2=O [Minocycline, minocycline]
4 µg/mL: MIC (Bacteroides ovatus; [11]) | MIC [5, 17]
0.03 µg/mL: MIC (Clostridium difficile; Clostridioides difficile) | MIC (Clostridium difficile; Clostridium difficile 3584) | MIC (Bacteroides fragilis; [10]) | MIC (Bacteroides ovatus; [12]) | MIC [4, 13] | MIC (Eikenella corrodens; Eikenella corrodens)
0.25 to 0.5 µg/mL: MIC Range (P. granulosum) | MIC Range (E. faecalis; [24]) | MIC Range (E. faecium; E. faecium [tetS] (4 isolates))
2 to 32 µg/mL: MIC Range (E. faecium; E. faecium [tetR] (6 isolates))
0.06 µg/mL: MIC ([3]; Peptostreptococcus micros 3432) | MIC (Propionibacterium acnes; Propionibacterium acnes 1713) | MIC (Fusobacterium nucleatum) | MIC50 (S. epidermidis; [20]) | MIC50 (S. pneumoniae; Streptococcus pneumoniae) | MIC50 (S. haemolyticus)
0.5 µg/mL: MIC [1] | MIC (Lactobacillus casei) | MIC (Lactobacillus plantarum) | MIC (Propionibacterium acnes; [9]) | MIC (Veillonella parvula) | MIC90 (S. haemolyticus)
0.25 µg/mL: MIC (Bifidobacterium bifidum) | MIC (Bifidobacterium brevi) | MIC (Bifidobacterium infantis) | MIC ([3]; Peptostreptococcus micros 3545) | MIC (Prevotella spp.; Prevotella spp. 3564) | MIC (Prevotella spp.; Prevotella spp. 3568) | MIC90 (S. epidermidis; [19]) | MIC90 (S. epidermidis; [20]) | MIC50 (E. faecium; E. faecium [VRE] (30 isolates))
8 µg/mL: MIC (Clostridium perfringens) | MIC (Bacteroides fragilis; Bacteroides fragilis 3479, read-out: MIC) | MIC [4, 14] | MIC (Bacteroides vulgatus; Bacteroides vulgatus 3494) | MIC (Bacteroides vulgatus; [15]) | MIC [5, 16] | MIC50 (E. faecalis; [23]) | MIC (E. faecium; [25])
0.5-0.5 μg/mL: MIC Range (S. agalactiae; [22])
> 32 µg/mL: MIC90 (P. mirabilis) | MIC50 (P. aeruginosa) | MIC90 (P. aeruginosa)
0.06 to 0.5 µg/mL: MIC Range (S. epidermidis; [19])
16 µg/mL: MIC50 (S. agalactiae; S. agalactiae (31 isolates)) | MIC90 (S. agalactiae; S. agalactiae (31 isolates)) | MIC90 (E. faecalis; [23]) | MIC90 (E. faecium; E. faecium [VRE] (30 isolates)) | MIC90 (E. faecium; E. faecium [VSE] (32 isolates)) | MIC50 (P. mirabilis)
0.25 to 2 µg/mL: MIC Range (P. avidum)
0.06 to 0.25 µg/mL: MIC Range (S. epidermidis; [20])
0.12 µg/mL: MIC50 (S. epidermidis; [19]) | MIC90 (S. pneumoniae; Streptococcus pneumoniae) | MIC50 (E. faecium; E. faecium [VSE] (32 isolates))
2 µg/mL: MIC [2, 8] | MIC (E. faecium; [26]) | MIC (E. faecium; [27])
0.25-0.25 μg/mL: MIC Range (S. pneumoniae; [21])
1 µg/mL: MIC (Bifidobacterium longum) | MIC [2, 7] | MIC [6, 18]
≦0.03-0.5 μg/mL: MIC Range (S. haemolyticus)
